In brackets after ≈: the same amount, converted by molar mass. Where two headings read alike, the source gives them in different places.
Columns and labels:
[1] = test system: Staphylococcus aureus SA161 (HA-MRSA, tet(M)); experiment: MIC assay, SA161; assay type: cell-based; conditions: for MIC: Staphylococcus aureus, MRSA
[2] = test system: Enterococcus faecalis EF103 (ATCC 29212); experiment: MIC assay, EF103; assay type: cell-based
[3] = test system: Streptococcus pneumoniae SP160 (tet(M)); experiment: MIC assay, SP160; assay type: cell-based
[4] = test system: Streptococcus pyogenes SP312 (2009 clinical isolate, tet(M)); experiment: MIC assay, SP312; assay type: cell-based
[5] = test system: Moraxella catarrhalis MC205 (ATCC 8176); experiment: MIC assay, MC205; assay type: cell-based
[6] = test system: Enterobacter cloacae EC603 (urine isolate); experiment: MIC assay, EC603; assay type: cell-based
[7] = test system: Proteus mirabilis PM112 (ATCC 35659); experiment: MIC assay, PM112; assay type: cell-based
[8] = test system: Pseudomonas aeruginosa PA673 (2009 urine isolate); experiment: MIC assay, PA673; assay type: cell-based
[9] = test system: Pseudomonas aeruginosa PA693 (2009 corneal scraping isolate); experiment: MIC assay, PA693; assay type: cell-based
[10] = test system: Pseudomonas aeruginosa PA1145 (strain used in murine pneumonia model); experiment: MIC assay, PA1145; assay type: cell-based
[11] = test system: Stenotrophomonas maltophilia SM256 (cystic fibrosis isolate, MDR); experiment: MIC assay, SM256; assay type: cell-based
[12] = test system: Burkholderia cenocepacia BC240 (cystic fibrosis isolate, MDR); experiment: MIC assay, BC240; assay type: cell-based; conditions: Burkholderia cenocepacia, control compounds
[13] = test system: Klebsiella pneumoniae KP109 (ATCC 13883)
[14] = test system: Klebsiella pneumoniae KP153 (tet(A), MDR, ESBL+)
PA 689 = experiment: MIC assay, PA689; conditions: Pseudomonas aeruginosa, read-out: MIC PA 689
Method: Minimum Inhibitory Concentration (MIC) Assay
MICs were determined according to the Clinical and Laboratory Standards Institute (CLSI) guidances (e.g., CLSI. Performance standards for antimicrobial susceptibility testing; nineteenth information supplement. CLSI document M100-S19, CLSI, 940 West Valley Road, Suite 1400, Wayne, Pa. 19087-1898, USA, 2009). Briefly, frozen bacterial strains were thawed and subcultured onto Mueller Hinton Broth (MHB) or other appropriate media (Streptococcus requires blood and Haemophilus requires hemin and NAD). Following incubation overnight, the strains were subcultured onto Mueller Hinton Agar and again incubated overnight. […] Isolated colonies were selected to prepare a starting inoculum equivalent to a 0.5 McFarland standard. […] Test compounds were prepared by dilution in sterile water to a final concentration of 5.128 mg/mL. Antibiotics (stored frozen, thawed and used within 3 hours of thawing) and compounds were further diluted to the desired working concentrations.
The assays were run as follows. Fifty μL of MHB was added to wells 2-12 of a 96-well plate. One hundred μL of appropriately diluted antibiotics was added to well 1. Fifty μL of antibiotics was removed from well 1 and added to well 2 and the contents of well 2 mixed by pipetting up and down five times. Fifty μL of the mixture in well 2 was removed and added to well 3 and mixed as above. Serial dilutions were continued in the same manner through well 12. Fifty μL was removed from well 12 so that all contained 50 μL. Fifty μL of the working inoculum was then added to all test wells. A growth control well was prepared by adding 50 μL of working inoculum and 50 μL of MHB to an empty well. The plates were then incubated at 37° C. overnight, removed from the incubator and each well was read on a plate reading mirror. The lowest concentration (MIC) of test compound that inhibited the growth of the bacteria was recorded.

[15] = test system: Staphylococcus epidermidis SE164 (ATCC 12228); experiment: MIC assay, SE164; assay type: cell-based; conditions: ATCC12228, read-out: MIC SE 164 12228
[16] = test system: Pseudomonas aeruginosa PA556 (multiple-Mex efflux pump knockout strain); experiment: microbe, parasite or virus in culture; assay type: cell-based
[17] = test system: Klebsiella pneumoniae KP109 (ATCC 13883); experiment: MIC assay, KP109; conditions: K. pneumoniae ATCC 13883; Table 4
[18] = ATCC29212, read-out: MIC EF 103 29212
[19] = read-out: MIC SP 160 tet M, S. pneumoniae tet(M), Table 6
[20] = read-out: MIC SP 160 tetM, S. pneumoniae tet(M), Table 4
[21] = read-out: MIC SP 160 tetM, S. pneumoniae tet(M), Table 5
[22] = read-out: MIC SP 160 tetM, S. pneumoniae tet(M), Table 7
[23] = read-out: MIC SP 160 tetM, control compounds
[24] = read-out: MIC SP 160 tetM, control compounds, numeric
[25] = ATCC8176, read-out: MIC MC 205 8176
[26] = ATCC35659, read-out: MIC PM 112 35659
[27] = K. pneumoniae tet(A), MDR, ESBL+, Table 4
[28] = K. pneumoniae tet(A), MDR, ESBL+, Table 5

With `CN(C)c1ccc(O)c2c1C[C@H]1C[C@H]3[C@H](N(C)C)C(O)=C(C(N)=O)C(=O)[C@@]3(O)C(O)=C1C2=O` [Minocycline, minocycline] the “MIC SA 161 tetM” value ([1]; S. aureus HA-MRSA, tet(M), Table 5) was 8 µg/mL (≈ 17.5 µM), the MIC ([2]; ATCC29212, E. faecalis ATCC 29212, Table 4, read-out: MIC EF 103 29212) was 1 µg/mL (≈ 2.19 µM) and the MIC ([3]; S. pneumoniae tet(M), Table 6, read-out: MIC SP 160 tet M) was 2 µg/mL (≈ 4.37 µM). For the same compound, the MIC ([3]; control compounds, numeric, read-out: MIC SP 160 tetM) was 2 µg/mL (≈ 4.37 µM), the MIC ([4]; S. pyogenes tet(M), Table 5, read-out: MIC SP 312) was 16 µg/mL (≈ 35 µM) and the MIC ([4]; S. pyogenes tet(M), Table 6, read-out: MIC SP 312 tet M) was 16 µg/mL (≈ 35 µM). The MIC ([5]; ATCC8176, M. catarrhalis ATCC 8176, Table 5, read-out: MIC MC 205 8176) was 0.02 µg/mL (≈ 0.0437 µM), the MIC ([6]; control compounds, c7, strain EC603 inferred, read-out: MIC) was 33 µg/mL (≈ 72.1 µM) and the MIC ([6]; control compounds, numeric, read-out: MIC EC 603 tetA) was 33 µg/mL (≈ 72.1 µM). The MIC ([7]; ATCC35659, P. mirabilis ATCC 35659, Table 5, read-out: MIC PM 112 35659) was 8 µg/mL (≈ 17.5 µM), the MIC ([8]; control compounds, c3, strain PA673 inferred, read-out: MIC) was 32 µg/mL (≈ 69.9 µM) and the MIC ([8]; control compounds, numeric, read-out: MIC PA 673) was 33 µg/mL (≈ 72.1 µM). The MIC ([9]; control compounds, c5, strain PA693 inferred, read-out: MIC) was 33 µg/mL (≈ 72.1 µM), the MIC ([9]; control compounds, numeric, read-out: MIC PA 693) was 33 µg/mL (≈ 72.1 µM) and the MIC ([10]; control compounds, c6, strain PA1145 inferred, read-out: MIC) was 33 µg/mL (≈ 72.1 µM). For the same compound, the MIC ([10]; control compounds, numeric, read-out: MIC PA 1145) was 32 µg/mL (≈ 69.9 µM), the MIC ([11]; control compounds, c9, strain SM256 inferred, read-out: MIC) was 0.5 µg/mL (≈ 1.09 µM) and the MIC ([11]; control compounds, numeric, read-out: MIC SM 256) was 0.5 µg/mL (≈ 1.09 µM). The MIC ([12]; c10, strain BC240 inferred, read-out: MIC) was 8 µg/mL (≈ 17.5 µM), the MIC ([12]; numeric, read-out: MIC BC 240) was 8 µg/mL (≈ 17.5 µM) and the “MIC KP 109 13883” value [13] was 1 µg/mL (≈ 2.19 µM). The “MIC KP 153 tetA” value [14] was 8 µg/mL (≈ 17.5 µM) and the MIC (PA 689) was 8 µg/mL (≈ 17.5 µM).
In the case of `CN(C)[C@@H]1C(O)=C(C(N)=O)C(=O)[C@@]2(O)C(O)=C3C(=O)c4c(O)cccc4C[C@H]3C[C@@H]12` [Sancycline, sancycline], the MIC ([1]; read-out: MIC SA 161 MRSAtetM) is reported as 2 µg/mL (≈ 4.83 µM), the MIC ([1]; read-out: MIC SA 161 tet M) is reported as 2 µg/mL (≈ 4.83 µM) and the MIC ([1]; read-out: MIC SA 161 tetM) is reported as 2 µg/mL (≈ 4.83 µM). For the same compound, the MIC [15] was 4 µg/mL (≈ 9.65 µM), the MIC [2, 18] was 8 µg/mL (≈ 19.3 µM) and the MIC [3, 19] was 8 µg/mL (≈ 19.3 µM). It also gave an MIC [3, 20] of 8 µg/mL (≈ 19.3 µM), an MIC [3, 21] of 8 µg/mL (≈ 19.3 µM) and an MIC [3, 22] of 8 µg/mL (≈ 19.3 µM). For the same compound, the MIC [3, 23] was 8 µg/mL (≈ 19.3 µM), the MIC [3, 24] was 8 µg/mL (≈ 19.3 µM) and the MIC ([4]; read-out: MIC SP 312) was 4 µg/mL (≈ 9.65 µM). For the same compound, the MIC ([4]; read-out: MIC SP 312 tet M) was 4 µg/mL (≈ 9.65 µM), the MIC [5, 25] was 0.13 µg/mL (≈ 0.314 µM) and the MIC [6] was 32 µg/mL (≈ 77.2 µM). The MIC ([6]; read-out: MIC EC 603 tetA) was 32 µg/mL (≈ 77.2 µM), the MIC [7, 26] was 4 µg/mL (≈ 9.65 µM) and the MIC [16] was 1 µg/mL (≈ 2.41 µM). For the same compound, the MIC ([16]; read-out: MIC PA 556) was 1 µg/mL (≈ 2.41 µM), the MIC [8] was 32 µg/mL (≈ 77.2 µM) and the MIC ([8]; read-out: MIC PA 673) was 33 µg/mL (≈ 79.6 µM). It also gave an MIC [9] of 33 µg/mL (≈ 79.6 µM), an MIC ([9]; read-out: MIC PA 693) of 33 µg/mL (≈ 79.6 µM) and an MIC [10] of 33 µg/mL (≈ 79.6 µM). It also gave an MIC ([10]; read-out: MIC PA 1145) of 32 µg/mL (≈ 77.2 µM), an MIC [11] of 1 µg/mL (≈ 2.41 µM) and an MIC ([11]; read-out: MIC SM 256) of 1 µg/mL (≈ 2.41 µM). The “MIC KP 153 tetA” value [14, 27] was 32 µg/mL (≈ 77.2 µM), the “MIC KP 153 tetA” value [14, 28] was 32 µg/mL (≈ 77.2 µM) and the “MIC KP 109 13883” value [17] was 8 µg/mL (≈ 19.3 µM). It also gave an MIC (PA 689) of 16 µg/mL (≈ 38.6 µM).
`CN(C)c1cc(NC(=O)CNC(C)(C)C)c(O)c2c1C[C@H]1C[C@H]3[C@H](N(C)C)C(O)=C(C(N)=O)C(=O)[C@@]3(O)C(O)=C1C2=O` [Tigecycline, tigecycline] gave an MIC ([1]; read-out: MIC SA 161 MRSAtetM) of 0.125 µg/mL (≈ 0.213 µM), an MIC ([1]; read-out: MIC SA 161 tet M) of 0.125 µg/mL (≈ 0.213 µM) and an MIC ([1]; read-out: MIC SA 161 tetM) of 0.13 µg/mL (≈ 0.222 µM). The MIC [15] was 0.125 µg/mL (≈ 0.213 µM), the MIC [2, 18] was 0.031 µg/mL (≈ 0.0529 µM) and the MIC [3, 19] was 0.015 µg/mL (≈ 0.0256 µM). The MIC [3, 20] was 0.016 µg/mL (≈ 0.0273 µM), the MIC [3, 21] was 0.02 µg/mL (≈ 0.0341 µM) and the MIC [3, 22] was 0.02 µg/mL (≈ 0.0341 µM). For the same compound, the MIC [3, 23] was 0.02 µg/mL (≈ 0.0341 µM), the MIC [3, 24] was 0.02 µg/mL (≈ 0.0341 µM) and the MIC ([4]; read-out: MIC SP 312) was 0.02 µg/mL (≈ 0.0341 µM). It also gave an MIC ([4]; read-out: MIC SP 312 tet M) of 0.015 µg/mL (≈ 0.0256 µM), an MIC [5, 25] of 0.02 µg/mL (≈ 0.0341 µM) and an MIC [6] of 2 µg/mL (≈ 3.41 µM). It also gave an MIC ([6]; read-out: MIC EC 603 tetA) of 2 µg/mL (≈ 3.41 µM), an MIC [7, 26] of 1 µg/mL (≈ 1.71 µM) and an MIC [16] of 0.25 µg/mL (≈ 0.427 µM). It also gave an MIC ([16]; read-out: MIC PA 556) of 0.25 µg/mL (≈ 0.427 µM), an MIC [8] of 16 µg/mL (≈ 27.3 µM) and an MIC ([8]; read-out: MIC PA 673) of 32 µg/mL (≈ 54.6 µM). It also gave an MIC [9] of 32 µg/mL (≈ 54.6 µM), an MIC ([9]; read-out: MIC PA 693) of 33 µg/mL (≈ 56.3 µM) and an MIC [10] of 33 µg/mL (≈ 56.3 µM). The MIC ([10]; read-out: MIC PA 1145) was 16 µg/mL (≈ 27.3 µM), the MIC ([10]; read-out: MIC PA 1145 Vivi- source) was 16 µg/mL (≈ 27.3 µM) and the MIC [11] was 1 µg/mL (≈ 1.71 µM). The MIC ([11]; read-out: MIC SM 256) was 1 µg/mL (≈ 1.71 µM), the “MIC KP 153 tetA” value [14, 27] was 1 µg/mL (≈ 1.71 µM) and the “MIC KP 153 tetA” value [14, 28] was 1 µg/mL (≈ 1.71 µM). The “MIC KP 109 13883” value [17] was 0.125 µg/mL (≈ 0.213 µM) and the MIC (PA 689) was 1 µg/mL (≈ 1.71 µM).

Reference: patent US10315992B2, “Tetracyline compounds” (Tetraphase Pharmaceuticals, Inc., priority 2012, dated 2019)
